These are literature values, as cited in patent US7622458B2, “Combination of ET-743 and a 5-fluorouracil pro-drug for cancer treatment” (Pharma Mar, S.A.U., priority 2004, dated 2009).

The subject of series [1] is human tumor xenografts, including melanoma and ovarian and breast carcinoma. The following applies: xenografts grown in athymic mice.
Series [2] has as its system sarcoma and breast and ovarian carcinoma. The settings on record: 1-, 3-, 24-, 72-hour i.v. infusion and 1 hour daily x5 schedules; patients with sarcoma and breast and ovarian carcinoma.

The structures appear in SMILES notation.

On to `COc1cc2c(cc1O)CCN[C@]21CS[C@@H]2c3c(OC(C)=O)c(C)c4c(c3[C@H](COC1=O)N1[C@@H]2[C@H]2c3c(cc(C)c(OC)c3O)C[C@@H]([C@@H]1O)N2C)OCO4` [ET-743, ecteinascidin 743], for which the “Antineoplastic activity against human tumor xenografts” value in series [1] is recorded as “potent antineoplastic activity”. In addition, the “Clinical responses in phase I studies” value in series [2] is on record as “Promising responses”.
